Measurements published in patent US20070053062A1, “Optical part and projection type display apparatus using same” (priority 2005, published 2007).

Legend:
mildews [1] = assay: Mildew proofness of the lenses left to stand in thermo-hygrostat after dipping in hot water; type: cell-based; set-up: key to Growing of mildew: ∘: Growing of mildews was not recognized by visual inspection and inspection with a 5x magnifier.; Growing of mildews was not recognized by visual inspection, but recognized by inspection with a 5x magnifier.; xx: Growing of mildews was recognized by both the visual inspection and the inspection with a 5x magnifier; conditions: lens dipped in hot water at 40° C. for 1 hour; for Growing of mildews (in words): then 1 week at 40° C. and 95% RH; for Growing of mildew: then 1 week in thermo-hygrostat of 40° C. and 95% RH, visual inspection and 5× magnifier
Procedure: Then, the lenses having the anti-reflecting membrane containing the mildew proofing agent were dipped in hot water at 40° C. for 1 hour and thereafter were left to stand for 1 week in a thermo-hygrostat of 40° C. and 95% RH. After lapse of 1 week, it was examined by visual inspection and inspection with a 5× magnifier whether mildews grew or not.
In compounds 13, 16, 18 and 20, the elemental proportion of nitrogen was 6% by weight or more.

mildews [2] = assay: Mildew proofness of lenses with anti-reflecting membrane containing mildew proofing agent, left to stand in thermo-hygrostat; type: cell-based; set-up: key: ∘: Growing of mildews was not recognized by visual inspection and inspection with a 5x magnifier.; Growing of mildews was not recognized by visual inspection, but recognized by inspection with a 5x magnifier.; xx: Growing of mildews was recognized by both the visual inspection and the inspection with a 5x magnifier; conditions: acrylic resin lens, anti-reflecting membrane containing the agent; 1 week in thermo-hygrostat of 40° C. and 95% RH; visual inspection and 5× magnifier
Procedure: Anti-reflecting paints containing the mildew proofing agentwere prepared by mixing a silica sol solution as a binder (containing 2-propanol as a main solvent and 10% by weight of an alkoxysilane polymer) (2 parts by weight), a 5 wt % dispersion of silicon dioxide having an average length of major axis of about 60 nm as inorganic oxide particles (35 parts by weight), 2-propanol (100 parts by weight), and a 2 wt % 2-propanol solution of the mildew proofing agent (2 parts by weight). Here, 2-propanol was used as the solvent because most of the mildew proofing agents only partially dissolve in water.
Next, the same lens of acrylic resin as used in Example 1 as one of the optical parts of the present invention was cleaned in the same manner as in Example 1, and thereafter the lens was coated with the anti-reflecting paint containing the mildew proofing agent in place of the anti-reflecting paint used in Example 1, followed by heating the coat. In this case, the anti-reflecting paint was also coated on the back surface of the lens as in Example 1. Thus, a lens having an anti-reflecting membrane containing the mildew proofing agent was produced.
Next, in order to confirm whether these lenses had mildew proofness or not, these lenses were left to stand for 1 week in a thermo-hygrostat of 40° C. and 95% RH. For comparison, the lens having the anti-reflecting membrane containing no mildew proofing agent was also left to stand together. After 1 week, it was confirmed by visual inspection and inspection with a 5× magnifier whether mildews grew or not.

| Structure (SMILES) | Growing of mildews (in words) (mildews [1]) | Growing of mildew (mildews [1]) | Growing of mildew (mildews [2]) |
| --- | --- | --- | --- |
| CCCCCCCC[n+]1ccccc1 [Compound 13] | Growing of a few mildews was seen | x | ∘ |
| CCCCCCCCCC[n+]1ccccc1 [Compound 14] |  | ∘ | ∘ |
| CCCC[n+]1ccccc1 [Compound 16] | Growing of a few mildews was seen | x | ∘ |
| CCCCCC[n+]1ccccc1 [Compound 17] |  | ∘ | ∘ |
| C[n+]1ccccc1 [Compound 18] | Growing of a few mildews was seen | x | ∘ |
| CC(C)(C)OC(=O)Nc1ccc(Cl)cc1 [Compound 27] |  |  | ∘ |
| CC(C)(C)OC(=O)Nc1ccc(I)cc1 [Compound 28] |  |  | ∘ |
| O=C(Nc1ccc(Cl)cc1)Oc1ccccc1 [Compound 29] |  |  | ∘ |
